From patent publication US7763707B2, “Use of ghrelin splice variant for treating cachexia and/or anorexia and/or anorexia-cachexia and/or malnutrition and/or lipodystrophy and/or muscle wasting and/or appetite-stimulation” (priority 2006, dated 2010)
Square brackets hold non-standard residues; d marks the D form. Ends that are not written are not given here. * marks the point of attachment. Octanoyl = CCCCCCCC(=O)*; Dap = NC[C@H](N)C(=O)O

Assays:
[1] = Subcutaneous administration of acylated ghrelin splice variant: weight gain, food consumption, body composition in 129Sv mice; format: in vivo
Experimental: FIG. 1A is a line graph showing cumulative body weight gain of acylated ghrelin splice variant-treated (SEQ ID NOs: 2 and 5) 129Sv mice compared to vehicle-treated controls. Acylated ghrelin splice variant induces body weight gain in male wild-type mice (n=10 per group, P=0.0001). In mice treated once daily for two weeks with acylated ghrelin splice variant (0.8 mg/kg, subcutaneously), cumulative weight gain of the SEQ ID NO:2 group was 3.4 times more than the vehicle-injected control animals. Cumulative weight gain of the acylated SEQ ID NO:5 group was 2 times more than the vehicle-injected control animals. FIG. 1B is a line graph showing cumulative food consumption of acylated ghrelin splice variant-treated (SEQ ID NOs: 2 and 5) 129Sv mice compared to vehicle-treated controls. […] Mice treated once daily for two weeks with acylated ghrelin splice variant (0.8 mg/kg, subcutaneously) ate 13% more than the vehicle-injected control animals (n=10 per group, P=0.004).
FIG. 2A is a line graph showing cumulative body weight gain of acylated ghrelin splice variant-treated (SEQ ID NOs: 2 and 4) 129Sv mice and of unacylated SEQ ID NO:5 compared to vehicle-treated controls. Acylated ghrelin splice variants induces body weight gain in male wild-type mice (n=8 per group, P=0.0001). In mice treated once daily for seven days with acylated or un-acylated ghrelin splice variant (7.2 mg/kg, subcutaneously), cumulative weight gain of the SEQ ID NO:2 and SEQ ID NO:4 group was 2.2 times more than the vehicle-injected control animals. Cumulative weight gain of the un-acylated SEQ ID NO:5 group was 25% less than the vehicle-injected control animals. FIG. 2B is a line graph showing cumulative food consumption of acylated ghrelin splice variant-treated (SEQ ID NOs: 2 and 4) 129Sv mice and of unacylated SEQ ID NO:5 compared to vehicle-treated controls. […] Mice treated once daily for seven days with acylated ghrelin splice variants (7.2 mg/kg, subcutaneously) ate 18% more than the vehicle-injected control animals (n=8 per group). Mice treated once daily for seven days with SEQ ID NO:5 (7.2 mg/kg, subcutaneously) ate 2% less than the vehicle-injected control animals (n=8 per group).
FIG. 4 is a bar graph showing the change in body composition of acylated ghrelin splice variant-treated (SEQ ID NOs: 2 and 4) 129Sv mice and unacylated SEQ ID NO:5 treated mice compared to vehicle and ghrelin-treated controls. Effect of seven days daily subcutaneous treatment with saline, ghrelin or acylated ghrelin splice variant (7.2 mg/kg, subcutaneously) on fat and lean body mass as measured by NMR is shown.
Acylated ghrelin splice variant (20 μg (FIGS. 1A and 1B) or 180 μg (FIGS. 2A and 2B)) or the Vehicle (1.6% mannitol) were administered once daily for 14 successive days (FIGS. 1A and 1B) or 7 successive days (FIGS. 2A and 2B), via the subcutaneous (SC) route, to groups comprising n=10 (FIGS. 1A and 1B) or n=8 (FIGS. 2A and 2B) 129Sv male mice. […] All animals were subjected to terminal bleeding, under CO2 anesthesia, immediately prior to euthanasia. Terminal blood collection was performed serially as per animal number, and not as per group.
Biochemistry: Blood for biochemistry analysis was collected into non-coated pre-labeled tubes. The tubes were pre-labeled and contained the following information: Study number, group number, animal number and date. Following clotting, the blood from each animal was centrifuged, and the serum was collected into two pre-labeled tubes and submitted for analysis as follows: Serum, 250 μl, was kept at 2-8° C. until analysis. The samples were subjected to the following listed tests using a Hitachi 917 system: Creatinine, Total bilirubin, Glucose, Triglycerides, Cholesterol, HDL, LDL, Total protein, Globulin, Albumin, Urea, Potassium, Phosphorus, Calcium, Sodium, Chloride, sGOT, sGPT, ALP. Urinalysis: Urine was collected into pre-labeled tubes (as above) from all animals (where possible) prior and/or after euthanasia. […]

[2] = cited from earlier work
[3] = 129Sv male mice, 0.8 mg/kg subcutaneously once daily for two weeks, n=10 per group
[4] = 129Sv male mice, 7.2 mg/kg subcutaneously once daily for seven days, n=8 per group

Substance: acylated SEQ ID NO:5: 29 amino acid human ghrelin splice variant, acylated at position 3 (GSSFLSPEHQRVQVRPPHKAPHVVPALPL; also: acylated at position 3 (acyl group not given here); listed as Homo sapiens)
- cumulative weight gain, times more than the vehicle-injected control animals [1, 3]: 2 times

Substance: un-acylated SEQ ID NO:5: 29 amino acid human ghrelin splice variant without acyl group (GSSFLSPEHQRVQVRPPHKAPHVVPALPL; listed as Homo sapiens)
- cumulative weight gain, less than the vehicle-injected control animals [1, 4]: 25%
- cumulative food consumption, less than the vehicle-injected control animals ([1]; 129Sv mice, 7.2 mg/kg subcutaneously once daily for seven days, n=8 per group): 2%

Substance: GSS (CO—C7H15) FLSPEHQRVQVRPPHKAPH (GSS(Octanoyl)FLSPEHQRVQVRPPHKAPH; listed as Homo sapiens) [SEQ ID NO:2, 22 amino acid human ghrelin splice variant, acylated at position 3]
- cumulative weight gain, times more than the vehicle-injected control animals [1, 3]: 3.4 times
- cumulative weight gain, times more than the vehicle-injected control animals [1, 4]: 2.2 times

Substance: SEQ ID NO:4: 24 amino acid human ghrelin splice variant having a 2,3-diaminopropionic acid (Dpr) residue in the third position, acylated (GS[Dap]FLSPEHQRVQVRPPHKAPHVV; also: Dpr3 acylated, acyl group not given here; listed as Homo sapiens)
- cumulative weight gain, times more than the vehicle-injected control animals [1, 4]: 2.2 times

Substance: ghrelin: 28 amino acid peptide bearing an n-octanoyl side chain on the third serine (GSS(Octanoyl)FLSPEHQRVQQRKESKKPPAKLQPR; UniProt Q9UBU3 24-51, looked up)
- effect of weight gain (lean vs fat mass) ([1]; Applicant's statement in the background): mainly on fat mass
- increase of food intake ([2]; infusion for 90 minutes, cancer cachexia patients): 30%
- increase of energy intake ([2]; subcutaneous injection of 3.6 nmol/kg prior to a meal): 27%
